Measurements: ChEMBL document CHEMBL1151343, “Antitumor plants. X. Constituents of Nectandra rigida” (1980)
In brackets after ≈: the same amount, converted by molar mass.

Tested on: KB
Assay: Cytotoxicity against human KB cells
Assay type: functional
Settings: read-out: ED50 (the source's name)

Structure (SMILES): C/C=C/c1cc(OC)c2c(c1)[C@H](C)[C@@H](c1ccc(O)c(OC)c1)O2 [LICARIN A]
- EC50: 7 µg/mL (≈ 21.4 µM)
